Measurements published in publication PMC9143880, “Improving Antimicrobial Activity and Physico-Chemical Properties by Isosteric Replacement of 2-Aminothiazole with 2-Aminooxazole” (Pharmaceuticals, 2022).
Converted amounts (≈) assume the structure as drawn. Where two headings read alike, the source gives them in different places.

Experiments:
M. tuberculosis H37Rv = details: whole cell, cited from earlier work
[1] = test system: Mtb H37Rv CNCTC My 331/88 (ATCC 27294); experiment: microbe, parasite or virus in culture; format: cell-based; details: Mycobacterium tuberculosis, read-out: MIC Mtb H37Rv
[2] = test system: Enterococcus faecalis CCM 4224 (ATCC 29212); experiment: Antibacterial microdilution broth (EUCAST); format: cell-based; details: Enterococcus faecalis; 24h incubation; read-out: MIC EF
HepG2 cells = experiment: HepG2 cytotoxicity screening (CellTiter 96); format: cell-based, human; details: for IC50: Homo sapiens, HepG2, 24 h, 24 h incubation, CellTiter 96, * above highest tested concentration, ** limited by insolubility in medium; for SI: SI = IC50 (µM) HepG2 / MICH37Ra (µM)
[3] = test system: M. aurum DSM 43999 (ATCC 23366); experiment: Antimycobacterial MIC, microdilution broth / resazurin; format: cell-based; details: Mycolicibacterium aurum, read-out: MIC M. aurum
[4] = test system: Staphylococcus aureus subsp. aureus CCM 4223 (ATCC 29213); experiment: Antibacterial microdilution broth (EUCAST); format: cell-based; details: Staphylococcus aureus; 24h incubation; read-out: MIC SA
[5] = test system: Escherichia coli CCM 3954 (ATCC 25922); experiment: Antibacterial microdilution broth (EUCAST); format: cell-based; details: Escherichia coli; 24h incubation; read-out: MIC EC
[6] = test system: Aspergillus flavus CCM 8363; experiment: Antifungal microdilution broth (EUCAST); details: Aspergillus flavus, CCM8363, 24 h, read-out: MIC AFla
[7] = test system: Pseudomonas aeruginosa CCM 3955 (ATCC 27853); experiment: Antibacterial microdilution broth (EUCAST); format: cell-based; details: Pseudomonas aeruginosa; 72h incubation; read-out: MIC PA
[8] = test system: Trichophyton interdigitale CCM 8377 (ATCC 9533); experiment: Antifungal microdilution broth (EUCAST); details: Trichophyton interdigitale, 72 h, read-out: MIC TI
[9] = test system: Candida krusei CCM 8271 (ATCC 6258); experiment: Antifungal microdilution broth (EUCAST); details: Pichia kudriavzevii, 24 h, read-out: MIC CK
[10] = test system: M. smegmatis DSM 43465 (ATCC 607); experiment: Antimycobacterial MIC, microdilution broth / resazurin; format: cell-based; details: Mycolicibacterium smegmatis, read-out: MIC M. smegmatis
[11] = test system: Candida parapsilosis CCM 8260 (ATCC 22019); experiment: Antifungal microdilution broth (EUCAST); details: Lodderomyces parapsilosis, 24 h, read-out: MIC CP
[12] = RP-UHPLC lipophilicity parameter log k’w; format: physicochemical; details: for log k’w: RP-UHPLC, acetonitrile/water, log k extrapolated to 0% acetonitrile; for logkw: experimental lipophilicity parameter
Procedure, shortened: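 log k’w from isocratic RP-UHPLC with an acetonitrile/water mobile phase, using 40, 45 and 50% acetonitrile for subtype I and 20, 30 and 40% for subtype II. A single run was made at each mobile-phase composition.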

[13] = test system: M. kansasii DSM 44162 (ATCC 12478); experiment: Antimycobacterial MIC, microdilution broth / resazurin; format: cell-based; details: Mycobacterium kansasii, read-out: MIC M. kansasii
[14] = test system: Staphylococcus aureus subsp. aureus (MRSA) CCM 4750 (ATCC 43300); experiment: Antibacterial microdilution broth (EUCAST); format: cell-based; details: Staphylococcus aureus; 24h incubation; read-out: MIC MRSA
[15] = test system: Staphylococcus epidermidis CCM 4418 (ATCC 12228); experiment: Antibacterial microdilution broth (EUCAST); format: cell-based; details: Staphylococcus epidermidis; 24h incubation; read-out: MIC SE
[16] = test system: Mtb MATI (MDR clinical isolate); experiment: microbe, parasite or virus in culture; format: cell-based; details: Mycobacterium tuberculosis, read-out: MIC Mtb MATI
[17] = test system: M. avium DSM 44156 (ATCC 25291); experiment: Antimycobacterial MIC, microdilution broth / resazurin; format: cell-based, Mycobacterium avium; details: Mycobacterium avium, read-out: MIC M. avium
[18] = test system: Lichtheimia corymbifera CCM 8077; experiment: Antifungal microdilution broth (EUCAST); details: Lichtheimia corymbifera, CCM8077, 24 h, read-out: MIC LC
[19] = test system: Acinetobacter baumannii DSM 30007 (ATCC 19606); experiment: Antibacterial microdilution broth (EUCAST); format: cell-based; details: Acinetobacter baumannii; 24h incubation; read-out: MIC AB
[20] = test system: Aspergillus fumigatus ATCC 204305; experiment: Antifungal microdilution broth (EUCAST); details: Aspergillus fumigatus, ATCC204305, 24 h, read-out: MIC AF
[21] = test system: Candida tropicalis CCM 8264 (ATCC 750); experiment: Antifungal microdilution broth (EUCAST); details: Candida tropicalis, 24 h, read-out: MIC CT
[22] = test system: Mtb IZAK (MDR clinical isolate); experiment: microbe, parasite or virus in culture; format: cell-based; details: Mycobacterium tuberculosis, read-out: MIC Mtb IZAK
[23] = test system: Mycobacterium tuberculosis H37Ra ITM-M006710 (ATCC 9431); experiment: Antimycobacterial MIC, microdilution broth / Alamar Blue (resazurin); format: cell-based; details: Mycobacterium tuberculosis
[24] = test system: Candida albicans CCM 8320 (ATCC 24433); experiment: Antifungal microdilution broth (EUCAST); details: Candida albicans, 24 h, read-out: MIC CA
[25] = Kinetic water solubility (water-induced precipitation of DMSO stock, UHPLC); format: physicochemical; details: 18 °C, water
From the text: A low value of log P is often presumed to be related to increased water solubility, although this might not always be the case since log P is a measure of relative solubility of the compound in the lipophilic and hydrophilic solvents (at equilibrium). Therefore, to be sure, we tested whether the lowered log k’w (related to log P) of the oxazole derivatives would also translate to increased solubility in water in a few representative derivatives. The water solubility of selected compounds was assessed by the kinetic method based on water-induced precipitation of DMSO stock solutions of tested compounds due to reasons described by Azzali and colleagues.
Water solubility was investigated using the kinetic solubility method. The sample (1 mg) was dissolved in the smallest amount of DMSO needed, 25 or 50 μL for subtype I and subtype II compounds, respectively. The samples were mixed at 18 °C in a thermomixer (Thermomixer comfort, Eppendorf, Hamburg, Germany) for 1 h. After mixing, the samples were diluted with water to a concentration of 500 μM, and the precipitate was observed. The sample was filtered through a 0.22 μm filter and diluted to be evaluated by UHPLC. The log S parameter was calculated from the experimental solubility in molar concentration. The samples were measured using the same instrument, software, and column as used in the purity evaluation.

Mtb laboratory ID MATI = format: cell-based, Mycobacterium tuberculosis; details: MDR strain MATI, CLSI breakpoints 2021
Mtb laboratory ID IZAK = format: cell-based, Mycobacterium tuberculosis; details: MDR strain IZAK, CLSI breakpoints 2020
[26] = 120 h, Middlebrook 7H9, resazurin after 120 h, read-out: Mtb H37Ra MIC
[27] = recalculated from µg/mL, read-out: MICH37Ra

Compound | MIC (M. tuberculosis H37Rv) | MIC [1] | MIC [2] | IC50 (HepG2 cells) | SI (HepG2 cells) | MIC ([3]; 72 h) | MIC [4] | melting point | MIC [5] | MIC [6] | MIC [7] | MIC [8] | MIC [9] | MIC [11] | log k’w [12] | logkw [12] | MIC [14] | MIC [16] | MIC [22] | MIC [23, 26] | other results
O=C(Nc1nc(-c2ccc(F)cc2)cs1)c1cncc(Cl)n1 [A] | 0.78 µg/mL |  |  |  |  |  |  |  |  |  |  |  |  |  |  |  |  |  |  |  | MIC (M. tuberculosis H37Rv; recalculated to µM): 2.3 µM
O=C(Nc1nc(-c2ccccn2)cs1)c1ccncc1 [B] | 1.6 to 3.1 µM |  |  |  |  |  |  |  |  |  |  |  |  |  |  |  |  |  |  |  | 
O=C(Nc1ncco1)c1ccnc(Cl)c1 [Compound 6b] |  | 6.25 µg/mL (≈ 27.9 µM) | 500 µM (≈ 112 µg/mL) | 664 µM | 47.5 | 3.12 µg/mL (≈ 14 µM) | 250 µM (≈ 55.9 µg/mL) | 158 to 162 °C | 62.5 µM (≈ 14 µg/mL) | 500 µM (≈ 112 µg/mL) | > 500 µM | 125 µM (≈ 28 µg/mL) | 250 µM (≈ 55.9 µg/mL) | 250 µM (≈ 55.9 µg/mL) | 1.136 | 1.136 | 62.5 µM (≈ 14 µg/mL) | 3.13 µg/mL (≈ 14 µM) | 3.13 µg/mL (≈ 14 µM) | 3.12 µg/mL | MIC ([10]; 48 h): 6.25 µg/mL (≈ 27.9 µM); MIC ([13]; 96 h): 3.12 µg/mL (≈ 14 µM); MIC [15]: 62.5 µM (≈ 14 µg/mL); MIC ([17]; 96 h): 3.12 µg/mL (≈ 14 µM); MIC [18]: 62.5 µM (≈ 14 µg/mL); MIC [19]: 62.5 µM (≈ 14 µg/mL); MIC [20]: 125 µM (≈ 28 µg/mL); MIC [21]: 500 µM (≈ 112 µg/mL); MIC [23, 27]: 14 µM; MIC [24]: 31.2 µM (≈ 6.99 µg/mL); solubility ([25]; water (DMSO stock diluted with water), kinetic from dmso stock, read-out: solubility in water): > 500 µM; solubility ([25]; kinetic method, DMSO stock diluted to 500 μM): no precipitate
Cc1cc(C(=O)Nc2ncco2)cc(Cl)n1 [Compound 7b] |  | 6.25 µg/mL (≈ 26.3 µM) | 500 µM (≈ 119 µg/mL) | 959 µM | >58.3 |  | 62.5 µM (≈ 14.9 µg/mL) | 149 to 153 °C | 250 µM (≈ 59.4 µg/mL) | > 500 µM | > 500 µM | 125 µM (≈ 29.7 µg/mL) | 500 µM (≈ 119 µg/mL) | 500 µM (≈ 119 µg/mL) | 1.430 | 1.43 | 125 µM (≈ 29.7 µg/mL) | 3.13 µg/mL (≈ 13.2 µM) | 3.13 µg/mL (≈ 13.2 µM) | < 3.91 µg/mL | MIC ([3]; resazurin after 72 h): 3.91 µg/mL (≈ 16.5 µM); MIC ([10]; resazurin after 48 h): 7.81 µg/mL (≈ 32.9 µM); MIC ([13]; resazurin after 96 h): 7.81 µg/mL (≈ 32.9 µM); MIC [15]: 125 µM (≈ 29.7 µg/mL); MIC ([17]; resazurin after 96 h): 3.91 µg/mL (≈ 16.5 µM); MIC [18]: 125 µM (≈ 29.7 µg/mL); MIC [19]: 500 µM (≈ 119 µg/mL); MIC [20]: 250 µM (≈ 59.4 µg/mL); MIC [21]: > 500 µM; MIC [23, 27]: < 16.5 µM; MIC [24]: 125 µM (≈ 29.7 µg/mL)
CC[C@@H](CO)NCCN[C@@H](CC)CO [EMB, ethambutol] |  | 0.39 µg/mL (≈ 1.91 µM) |  |  |  |  |  |  |  |  |  |  |  |  |  |  |  | 1.56 µg/mL (≈ 7.64 µM) | 1.56 µg/mL (≈ 7.64 µM) |  | Concentration (susceptibility profile) (Mtb laboratory ID MATI): 0.5 µg/mL; Susceptibility (Mtb laboratory ID MATI): sensitive; Concentration (susceptibility profile) (Mtb laboratory ID IZAK): 0.5 µg/mL; Susceptibility (Mtb laboratory ID IZAK): sensitive
NNC(=O)c1ccncc1 [INH, isoniazid, reference compound] |  | 0.39 µg/mL (≈ 2.84 µM) |  |  |  | 3.91 µg/mL (≈ 28.5 µM) |  |  |  |  |  |  |  |  |  |  |  | 12.5 µg/mL (≈ 91.1 µM) | 12.5 µg/mL (≈ 91.1 µM) | 0.25 µg/mL | Susceptibility (Mtb laboratory ID MATI): resistant; MIC ([10]; resazurin after 48 h): 15.6 to 31.2 µg/mL (≈ 114 to 228 µM); MIC ([13]; resazurin after 96 h): 3.12 to 6.25 µg/mL (≈ 22.8 to 45.6 µM); MIC ([17]; resazurin after 96 h): 1000 µg/mL (≈ 7290 µM)
